Measured values from patent US9695155B2, “Herbicidal substituted pyrimidinyloxy benzene compounds” (E. I. DU PONT DE NEMOURS AND COMPANY, priority 2013, dated 2017).

Tests used:
[1] = tested on: bluegrass; assay: Test D preemergence; assay type: in vivo, Poa annua
Summary of the method: (§1)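 In a controlled growth environment, treated and control plants were held 7 to 21 days, then compared visually. Damage was scored 0–100, where 100 means complete control. Sprays contained surfactant in a non-phytotoxic solvent; post-applied plants were at the 1- to 4-leaf stage.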

[2] = tested on: bromegrass, downy; assay: Test D preemergence; assay type: in vivo, Bromus tectorum
Summary of the method: as §1

[3] = tested on: field violet; assay: Test D preemergence; assay type: in vivo, Viola arvensis
Summary of the method: as §1

[4] = tested on: deadnettle; assay: Test D preemergence; assay type: in vivo, Lamium amplexicaule
Summary of the method: as §1

[5] = tested on: wild radish; assay: Test D preemergence; assay type: in vivo, Raphanus raphanistrum
Summary of the method: as §1

[6] = tested on: bluegrass; assay: Test D postemergence; assay type: in vivo, Poa annua; conditions: Postemergence, scale 0 to 100 (0 no effect, 100 complete control)
Summary of the method: as §1

[7] = tested on: field violet; assay: Test D postemergence; assay type: in vivo, Viola arvensis
Summary of the method: as §1

[8] = tested on: green foxtail; assay: Test D postemergence; assay type: in vivo, Setaria viridis
Summary of the method: as §1

[9] = tested on: kochia; assay: Test D postemergence; assay type: in vivo, Kochia scoparia
Summary of the method: as §1

[10] = tested on: wild mustard; assay: Test D postemergence; assay type: in vivo, Sinapis arvensis
Summary of the method: as §1

[11] = tested on: windgrass; assay: Test D postemergence; assay type: in vivo, Apera spica-venti
Summary of the method: as §1

[12] = 31 g ai/ha, scale 0 (no effect) to 100 (complete control)
[13] = 62 g ai/ha, scale 0 to 100 (0 no effect, 100 complete control)
[14] = 125 g ai/ha, scale 0 to 100 (0 no effect, 100 complete control)
[15] = 250 g ai/ha, scale 0 to 100 (0 no effect, 100 complete control)

Work on `Fc1cccc(Oc2ncc(Cl)cn2)c1-n1cc(Br)cn1` [Compound 178, 2-[2-(4-bromo-1H-pyrazol-1-yl)-3-fluorophenoxy]-5-chloropyrimidine] yielded a pest or weed control at 16 g/ha ([1]; Poa annua, pre-emergence, 16 g ai/ha, scale 0 (no effect) to 100 (complete control), read-out: Plant response rating, Bluegrass) of 0%, a pest or weed control at 31 g/ha ([1]; Poa annua, pre-emergence, 31 g ai/ha, scale 0-100, read-out: Plant response rating, Bluegrass) of 10% and a pest or weed control at 62 g/ha ([1]; Poa annua, pre-emergence, 62 g ai/ha, scale 0-100, read-out: Plant response rating, Bluegrass) of 20%. For the same molecule, the pest or weed control at 125 g/ha ([1]; Poa annua, pre-emergence, 125 g ai/ha, scale 0-100, read-out: Plant response rating, Bluegrass) was 70%, the pest or weed control at 16 g/ha ([2]; Bromus tectorum, pre-emergence, 16 g ai/ha, scale 0 (no effect) to 100 (complete control), read-out: Plant response rating, Bromegrass, Downy) was 0% and the pest or weed control at 31 g/ha ([2]; Bromus tectorum, pre-emergence, 31 g ai/ha, scale 0-100, read-out: Plant response rating, Bromegrass, Downy) was 0%. The pest or weed control at 62 g/ha ([2]; Bromus tectorum, pre-emergence, 62 g ai/ha, scale 0-100, read-out: Plant response rating, Bromegrass, Downy) was 0%, the pest or weed control at 125 g/ha ([2]; Bromus tectorum, pre-emergence, 125 g ai/ha, scale 0-100, read-out: Plant response rating, Bromegrass, Downy) was 10% and the pest or weed control at 16 g/ha ([3]; Viola arvensis, pre-emergence, 16 g ai/ha, scale 0 (no effect) to 100 (complete control), read-out: Plant response rating, Field Violet) was 20%. The pest or weed control at 62 g/ha ([3]; Viola arvensis, pre-emergence, 62 g ai/ha, scale 0-100, read-out: Plant response rating, Field Violet) was 90%, the pest or weed control at 125 g/ha ([3]; Viola arvensis, pre-emergence, 125 g ai/ha, scale 0-100, read-out: Plant response rating, Field Violet) was 100% and the pest or weed control at 16 g/ha ([4]; Lamium amplexicaule, pre-emergence, 16 g ai/ha, scale 0 (no effect) to 100 (complete control), read-out: Plant response rating, Deadnettle) was 50%. The pest or weed control at 31 g/ha ([4]; Lamium amplexicaule, pre-emergence, 31 g ai/ha, scale 0-100, read-out: Plant response rating, Deadnettle) was 60%, the pest or weed control at 62 g/ha ([4]; Lamium amplexicaule, pre-emergence, 62 g ai/ha, scale 0-100, read-out: Plant response rating, Deadnettle) was 75% and the pest or weed control at 125 g/ha ([4]; Lamium amplexicaule, pre-emergence, 125 g ai/ha, scale 0-100, read-out: Plant response rating, Deadnettle) was 100%. The pest or weed control at 16 g/ha ([5]; Raphanus raphanistrum, pre-emergence, 16 g ai/ha, scale 0 (no effect) to 100 (complete control), read-out: Plant response rating, Radish, Wild) was 55%, the pest or weed control at 31 g/ha ([5]; Raphanus raphanistrum, pre-emergence, 31 g ai/ha, scale 0 (no effect) to 100 (complete control), read-out: Plant response rating, Radish, Wild) was 90% and the pest or weed control at 62 g/ha ([5]; Raphanus raphanistrum, pre-emergence, 62 g ai/ha, scale 0-100, read-out: Plant response rating, Radish, Wild) was 100%. It also gave a pest or weed control at 125 g/ha ([5]; Raphanus raphanistrum, pre-emergence, 125 g ai/ha, scale 0-100, read-out: Plant response rating, Radish, Wild) of 100%, a pest or weed control at 16 g/ha ([6]; Poa annua, post-emergence, 16 g ai/ha, read-out: Plant response rating, Bluegrass) of 20% and a pest or weed control at 31 g/ha ([6]; Poa annua, post-emergence, 31 g ai/ha, read-out: Plant response rating, Bluegrass) of 30%. The pest or weed control at 62 g/ha ([6]; Poa annua, post-emergence, 62 g ai/ha, read-out: Plant response rating, Bluegrass) was 35%, the pest or weed control at 125 g/ha ([6]; Poa annua, post-emergence, 125 g ai/ha, read-out: Plant response rating, Bluegrass) was 55% and the pest or weed control at 16 g/ha ([7]; Viola arvensis, post-emergence, 16 g ai/ha, scale 0-100, read-out: Plant response rating, Field Violet) was 50%. For the same molecule, the pest or weed control at 31 g/ha ([7]; Viola arvensis, post-emergence, 31 g ai/ha, scale 0 to 100 (0 no effect, 100 complete control), read-out: Plant response rating, Field Violet) was 60%, the pest or weed control at 62 g/ha ([7]; Viola arvensis, post-emergence, 62 g ai/ha, scale 0 to 100 (0 no effect, 100 complete control), read-out: Plant response rating, Field Violet) was 65% and the pest or weed control at 125 g/ha ([7]; Viola arvensis, post-emergence, 125 g ai/ha, scale 0 to 100 (0 no effect, 100 complete control), read-out: Plant response rating, Field Violet) was 70%. For the same molecule, the pest or weed control at 16 g/ha ([8]; Setaria viridis, post-emergence, 16 g ai/ha, scale 0-100, read-out: Plant response rating, Foxtail, Green) was 15%, the pest or weed control at 31 g/ha ([8]; Setaria viridis, post-emergence, 31 g ai/ha, scale 0 to 100 (0 no effect, 100 complete control), read-out: Plant response rating, Foxtail, Green) was 20% and the pest or weed control at 62 g/ha ([8]; Setaria viridis, post-emergence, 62 g ai/ha, scale 0 to 100 (0 no effect, 100 complete control), read-out: Plant response rating, Foxtail, Green) was 30%. It also gave a pest or weed control at 125 g/ha ([8]; Setaria viridis, post-emergence, 125 g ai/ha, scale 0 to 100 (0 no effect, 100 complete control), read-out: Plant response rating, Foxtail, Green) of 35%, a pest or weed control at 16 g/ha ([9]; Bassia scoparia, post-emergence, 16 g ai/ha, scale 0-100, read-out: Plant response rating, Kochia) of 60% and a pest or weed control at 31 g/ha ([9]; Bassia scoparia, post-emergence, 31 g ai/ha, scale 0 to 100 (0 no effect, 100 complete control), read-out: Plant response rating, Kochia) of 70%. It also gave a pest or weed control at 62 g/ha ([9]; Bassia scoparia, post-emergence, 62 g ai/ha, scale 0 to 100 (0 no effect, 100 complete control), read-out: Plant response rating, Kochia) of 75%, a pest or weed control at 125 g/ha ([9]; Bassia scoparia, post-emergence, 125 g ai/ha, scale 0 to 100 (0 no effect, 100 complete control), read-out: Plant response rating, Kochia) of 85% and a pest or weed control at 16 g/ha ([10]; Brassica, post-emergence, 16 g ai/ha, scale 0-100, read-out: Plant response rating, Mustard, Wild) of 70%. For the same molecule, the pest or weed control at 31 g/ha ([10]; Brassica, post-emergence, 31 g ai/ha, scale 0 to 100 (0 no effect, 100 complete control), read-out: Plant response rating, Mustard, Wild) was 75%, the pest or weed control at 62 g/ha ([10]; Brassica, post-emergence, 62 g ai/ha, scale 0 to 100 (0 no effect, 100 complete control), read-out: Plant response rating, Mustard, Wild) was 75% and the pest or weed control at 125 g/ha ([10]; Brassica, post-emergence, 125 g ai/ha, scale 0 to 100 (0 no effect, 100 complete control), read-out: Plant response rating, Mustard, Wild) was 100%. It also gave a pest or weed control at 16 g/ha ([11]; Apera spica-venti, post-emergence, 16 g ai/ha, scale 0-100, read-out: Plant response rating, Windgrass) of 5%, a pest or weed control at 31 g/ha ([11]; Apera spica-venti, post-emergence, 31 g ai/ha, scale 0 to 100 (0 no effect, 100 complete control), read-out: Plant response rating, Windgrass) of 10% and a pest or weed control at 62 g/ha ([11]; Apera spica-venti, post-emergence, 62 g ai/ha, scale 0 to 100 (0 no effect, 100 complete control), read-out: Plant response rating, Windgrass) of 15%. It also gave a pest or weed control at 125 g/ha ([11]; Apera spica-venti, post-emergence, 125 g ai/ha, scale 0 to 100 (0 no effect, 100 complete control), read-out: Plant response rating, Windgrass) of 20%.
With `N#Cc1cccc(Oc2ncc(Cl)cn2)c1-n1cc(-n2ccc(C(F)(F)F)n2)cn1` [Compound 284] the “Plant response rating, Bluegrass” value [1, 12] was 0, the “Plant response rating, Bluegrass” value ([1]; 62 g ai/ha, scale 0-100) was 15 and the “Plant response rating, Bluegrass” value ([1]; 125 g ai/ha, scale 0-100) was 20. For the same molecule, the “Plant response rating, Bluegrass” value ([1]; 250 g ai/ha, scale 0-100) was 25, the “Plant response rating, Bromegrass, Downy” value [2, 12] was 0 and the “Plant response rating, Bromegrass, Downy” value ([2]; 62 g ai/ha, scale 0-100) was 0. For the same molecule, the “Plant response rating, Bromegrass, Downy” value ([2]; 125 g ai/ha, scale 0-100) was 0, the “Plant response rating, Bromegrass, Downy” value ([2]; 250 g ai/ha, scale 0-100) was 10 and the “Plant response rating, Field Violet” value [3, 12] was 45. The “Plant response rating, Field Violet” value ([3]; 62 g ai/ha, scale 0-100) was 100, the “Plant response rating, Field Violet” value ([3]; 125 g ai/ha, scale 0-100) was 100 and the “Plant response rating, Field Violet” value ([3]; 250 g ai/ha, scale 0-100) was 100. The “Plant response rating, Deadnettle” value [4, 12] was 35, the “Plant response rating, Deadnettle” value ([4]; 62 g ai/ha, scale 0-100) was 45 and the “Plant response rating, Deadnettle” value ([4]; 125 g ai/ha, scale 0-100) was 75. The “Plant response rating, Deadnettle” value ([4]; 250 g ai/ha, scale 0-100) was 100, the “Plant response rating, Radish, Wild” value [5, 12] was 0 and the “Plant response rating, Radish, Wild” value ([5]; 125 g ai/ha, scale 0-100) was 0. The “Plant response rating, Radish, Wild” value ([5]; 250 g ai/ha, scale 0-100) was 35, the “Plant response rating, Bluegrass” value ([6]; 62 g ai/ha) was 35 and the “Plant response rating, Bluegrass” value ([6]; 31 g ai/ha) was 25. The “Plant response rating, Bluegrass” value ([6]; 125 g ai/ha) was 40, the “Plant response rating, Bluegrass” value ([6]; 250 g ai/ha) was 45 and the “Plant response rating, Field Violet” value ([7]; 31 g ai/ha, scale 0-100) was 100. The “Plant response rating, Field Violet” value [7, 13] was 85, the “Plant response rating, Field Violet” value [7, 14] was 100 and the “Plant response rating, Field Violet” value [7, 15] was 100. For the same molecule, the “Plant response rating, Foxtail, Green” value ([8]; 31 g ai/ha, scale 0-100) was 10, the “Plant response rating, Foxtail, Green” value [8, 13] was 10 and the “Plant response rating, Foxtail, Green” value [8, 14] was 50. The “Plant response rating, Foxtail, Green” value [8, 15] was 85, the “Plant response rating, Kochia” value ([9]; 31 g ai/ha, scale 0-100) was 100 and the “Plant response rating, Kochia” value [9, 13] was 100. For the same molecule, the “Plant response rating, Kochia” value [9, 14] was 100, the “Plant response rating, Kochia” value [9, 15] was 100 and the “Plant response rating, Mustard, Wild” value ([10]; 31 g ai/ha, scale 0-100) was 100. The “Plant response rating, Mustard, Wild” value [10, 13] was 100, the “Plant response rating, Mustard, Wild” value [10, 14] was 100 and the “Plant response rating, Mustard, Wild” value [10, 15] was 100. For the same molecule, the “Plant response rating, Windgrass” value ([11]; 31 g ai/ha, scale 0-100) was 20, the “Plant response rating, Windgrass” value [11, 13] was 20 and the “Plant response rating, Windgrass” value [11, 14] was 30. For the same molecule, the “Plant response rating, Windgrass” value [11, 15] was 30.
